Data taken from US20210400977A1, “META-DIAMIDE COMPOUNDS FOR CONTROLLING INVERTEBRATE PESTS” (FMC Corporation, priority 2018, published 2021).

Key:
[1] = test system: green peach aphid (Myzus persicae (Sulzer)); experiment: Test E: control of green peach aphid through contact and/or systemic means; assay type: in vivo; conditions: 144 h, assessed after 6 days; for mortality at 50 ppm: sprayed at 50 ppm; for mortality at 250 ppm: sprayed at 250 ppm
Procedure: (§1) Test compounds were formulated using a solution containing 10% acetone, 90% water and 300 ppm Activator 90® non-ionic surfactant (Loveland Products, Loveland, Colo., USA). The formulated compounds were applied in 1 mL of liquid through an atomizer nozzle positioned 1.27 cm (0.5 inches) above the top of each test unit. Test compounds were sprayed at the rates indicated, and each test was replicated three times.
For evaluating control of green peach aphid (Myzus persicae (Sulzer)) through contact and/or systemic means, the test unit consisted of a small open container with a 12-15-day-old radish plant inside. This was pre-infested by placing on a leaf of the test plant 30-40 aphids on a piece of leaf excised from a culture plant (cut-leaf method). The aphids moved onto the test plant as the leaf piece desiccated. After pre-infestation, the soil of the test unit was covered with a layer of sand.
Test compounds were formulated and sprayed at 250 and/or 50 ppm. After spraying of the formulated test compound, each test unit was allowed to dry for 1 hour and then a black, screened cap was placed on top. The test units were held for 6 days in a growth chamber at 19-21° C. and 50-70% relative humidity. Each test unit was then visually assessed for insect mortality.

[2] = test system: sweetpotato whitefly (Bemisia tabaci (Gennadius)); experiment: Test G: control of sweetpotato whitefly through contact and/or systemic means; assay type: in vivo; conditions: 312 h, assessed after 13 days; for mortality at 50 ppm: sprayed at 50 ppm; for mortality at 250 ppm: sprayed at 250 ppm
Procedure: as §1
For evaluating control of the sweetpotato whitefly (Bemisia tabaci (Gennadius)) through contact and/or systemic means, the test unit consisted of a small open container with a 12-14-day-old cotton plant or 7-9-day-old soybean plant inside. Prior to the spray application, both cotyledons were removed from the plant, leaving one true leaf for the assay. Adult whiteflies were allowed to lay eggs on the plant and then were removed from the test unit. Cotton or soybean plants infested with at least 15 eggs were submitted to the test for spraying.
Test compounds were formulated and sprayed at 250 and/or 50 ppm. After spraying, the test units were allowed to dry for 1 hour. The cylinders were then removed, and the units were taken to a growth chamber and held for 13 days at 28° C. and 50-70% relative humidity. Each test unit was then visually assessed for insect mortality.

[3] = test system: cotton melon aphid (Aphis gossypii (Glover)); experiment: Test F: control of cotton melon aphid through contact and/or systemic means; assay type: in vivo; conditions: 144 h, assessed after 6 days; for mortality at 50 ppm: sprayed at 50 ppm; for mortality at 250 ppm: sprayed at 250 ppm
[4] = test system: potato leafhopper (Empoasca fabae (Harris)); experiment: Test D: control of potato leafhopper through contact and/or systemic means; assay type: in vivo; conditions: 144 h, assessed after 6 days; for mortality at 50 ppm: sprayed at 50 ppm; for mortality at 250 ppm: sprayed at 250 ppm
Procedure: as §1
For evaluating control of potato leafhopper (Empoasca fabae (Harris)) through contact and/or systemic means, the test unit consisted of a small open container with a 5-6-day-old Soleil bean plant (primary leaves emerged) inside. White sand was added to the top of the soil, and one of the primary leaves was excised prior to application of the test compound.
Test compounds were formulated and sprayed at 250 and/or 50 ppm. After spraying of the formulated test compound, the test units were allowed to dry for 1 hour before they were post-infested with 5 potato leafhoppers (18-to-21-day-old adults). A black, screened cap was placed on the top of the test unit, and the test units were held for 6 days in a growth chamber at 20° C. and 70% relative humidity. Each test unit was then visually assessed for insect mortality.

| SMILES | mortality at 50 ppm [1] [%] | mortality at 250 ppm [1] [%] | mortality at 50 ppm [2] [%] | mortality at 250 ppm [2] [%] | mortality at 50 ppm [3] [%] | mortality at 250 ppm [3] [%] | mortality at 50 ppm [4] [%] | mortality at 250 ppm [4] [%] | melting point [°C] |
| --- | --- | --- | --- | --- | --- | --- | --- | --- | --- |
| O=C(Nc1ccc(Cl)c(CNC(=O)C(F)(F)F)c1)C1C(c2ccc(F)c(Cl)c2)C1(Cl)Cl (stereo not drawn) [Compound 19, 2,2-dichloro-3-(3-chloro-4-fluorophenyl)-N-[4-chloro-3-[[(2,2,2-trifluoroacetyl)amino]methyl]phenyl]cyclopropanecarboxamide] | ≥ 80 | ≥ 80 | ≥ 70 | ≥ 70 | ≥ 80 | ≥ 80 | ≥ 80 | ≥ 80 | – |
| CC(=O)NCc1ccc(Cl)c(NC(=O)C2C(c3cc(Cl)cc(Cl)c3)C2(Cl)Cl)c1 (stereo not drawn) [Compound 135] | – | – | – | – | – | – | – | – | 101 to 105 |
| O=C(NCc1nc(NC(=O)C2C(c3ccc(F)c(Cl)c3)C2(Cl)Cl)ccc1Br)C1CC1 (stereo not drawn) [Compound 254] | – | – | – | – | – | – | – | – | 152 to 155 |
| O=C(NCc1cc(NC(=O)C2C(c3ccc(F)c(C(F)(F)F)c3)C2(Cl)Cl)ccc1F)C1CC1 (stereo not drawn) [Compound 77, 2,2-dichloro-N-[3-[[(cyclopropylcarbonyl)amino]methyl]-4-fluorophenyl]-3-[4-fluoro-3-(trifluoromethyl)phenyl]cyclopropanecarboxamide] | ≥ 80 | – | ≥ 70 | ≥ 70 | ≥ 80 | – | ≥ 80 | – | – |
| O=C(Nc1ccc(Cl)c(CNC(=O)C(F)(F)F)c1)C1C(c2ccc(F)c(C(F)(F)F)c2)C1(Cl)Cl (stereo not drawn) [Compound 174, 2,2-dichloro-N-[4-chloro-3-[[(2,2,2-trifluoroacetyl)amino]methyl]phenyl]-3-[4-fluoro-3-(trifluoromethyl)phenyl]cyclopropanecarboxamide] | ≥ 80 | – | – | ≥ 70 | ≥ 80 | – | ≥ 80 | – | – |
| CC(=O)NCc1cc(NC(=O)C2C(c3cc(Cl)cc(Cl)c3)C2(F)F)ccc1Cl (stereo not drawn) [Compound 47] | – | ≥ 80 | – | – | ≥ 80 | ≥ 80 | ≥ 80 | ≥ 80 | – |
| O=C(CC(F)(F)F)NCc1cc(NC(=O)C2C(c3cc(F)c(Cl)c(F)c3)C2(Cl)Cl)ccc1F (stereo not drawn) [Compound 169, 2,2-dichloro-3-(4-chloro-3,5-difluorophenyl)-N-[4-fluoro-3-[[(3,3,3-trifluoro-1-oxopropyl)amino]methyl]phenyl]cyclopropanecarboxamide] | ≥ 80 | – | – | – | ≥ 80 | – | ≥ 80 | – | – |
| O=C(NCc1cc(NC(=O)C2C(c3ccc(F)c(C(F)(F)F)c3)C2(Cl)Cl)ccc1Cl)C1CC1 (stereo not drawn) [Compound 39, 2,2-dichloro-N-[4-chloro-3-[[(cyclopropylcarbonyl)amino]methyl]phenyl]-3-[4-fluoro-3-(trifluoromethyl)phenyl]cyclopropanecarboxamide] | ≥ 80 | ≥ 80 | ≥ 70 | ≥ 70 | ≥ 80 | ≥ 80 | ≥ 80 | ≥ 80 | – |
| O=C(Nc1ccc(Cl)c(CNC(=O)C(F)(F)F)c1)C1C(c2ccc(Cl)c(Cl)c2)C1(Cl)Cl (stereo not drawn) [Compound 175, 2,2-dichloro-N-[4-chloro-3-[[(2,2,2-trifluoroacetyl)amino]methyl]phenyl]-3-(3,4-dichlorophenyl)cyclopropanecarboxamide] | ≥ 80 | – | – | – | ≥ 80 | – | ≥ 80 | – | – |
| O=C(NCc1cc(NC(=O)C2C(c3cc(Cl)cc(Cl)c3)C2(Cl)Cl)ccc1Cl)C1CC1 (stereo not drawn) [Compound 62, 2,2-dichloro-N-[4-chloro-3-[(cyclopropanecarbonylamino)methyl]phenyl]-3-(3,5-dichlorophenyl)cyclopropane-1-carboxamide] | ≥ 80 | ≥ 80 | – | ≥ 70 | ≥ 80 | ≥ 80 | ≥ 80 | ≥ 80 | – |
| O=C(CC(F)(F)F)NCc1cc(NC(=O)C2C(c3ccc(F)c(C(F)(F)F)c3)C2(Cl)Cl)ccc1F (stereo not drawn) [Compound 78, 2,2-dichloro-3-[4-fluoro-3-(trifuoromethyl)phenyl]-N-[4-fluoro-3-[[(3,3,3-trifluoro-1-oxopropyl)amino]methyl]phenyl]cyclopropanecarboxamide] | ≥ 80 | – | ≥ 70 | – | ≥ 80 | – | ≥ 80 | – | – |
| O=C(CC(F)(F)F)NCc1cc(NC(=O)C2C(c3ccc(Cl)c(Cl)c3)C2(Cl)Cl)ccc1F (stereo not drawn) [Compound 79, 2,2-dichloro-3-(3,4-dichlorophenyl)-N-[4-fluoro-3-[[(3,3,3-trifluoro-1-oxopropyl)amino]methyl]phenyl]cyclopropanecarboxa-mide] | – | – | – | ≥ 70 | ≥ 80 | – | ≥ 80 | – | – |
| O=C(NCc1c(F)ccc(NC(=O)C2C(c3ccc(F)c(Cl)c3)C2(Cl)Cl)c1F)C1CC1 (stereo not drawn) [Compound 164, 2,2-dichloro-3-(3-chloro-4-fluorophenyl)-N-[3-[[(cyclopropylcarbonyl)amino]methyl]-2,4-difluorophenyl]cyclopropanecarboxamide] | – | – | – | – | – | – | ≥ 80 | – | – |
| O=C(CC(F)(F)F)NCc1cc(NC(=O)C2C(c3ccc(F)c(C(F)(F)F)c3)C2(Cl)Cl)ccc1Cl (stereo not drawn) [Compound 116, 2,2-dichloro-N-[4-chloro-3-[[(3,3,3-trifluoro-1-oxopropyl)amino]methyl]phenyl]-3-[4-fluoro-3-(trifluoromethyl)phenyl]cyclopropanecarboxamide] | – | – | – | – | – | – | ≥ 80 | – | – |
| O=C(NCc1cc(NC(=O)C2C(c3cc(Cl)cc(Cl)c3)C2(F)F)ccc1Cl)C1CC1 (stereo not drawn) [Compound 48] | – | – | – | – | – | ≥ 80 | ≥ 80 | ≥ 80 | – |
| CCC(=O)NCc1cc(NC(=O)C2C(c3cc(Cl)cc(Cl)c3)C2(Cl)Cl)ccc1Cl (stereo not drawn) [Compound 147] | ≥ 80 | ≥ 80 | ≥ 70 | ≥ 70 | ≥ 80 | ≥ 80 | ≥ 80 | ≥ 80 | – |
| O=C(CC(F)(F)F)NCc1c(F)ccc(NC(=O)C2C(c3ccc(F)c(Cl)c3)C2(Cl)Cl)c1F (stereo not drawn) [Compound 170, 2,2-dichloro-3-(3-chloro-4-fluorophenyl)-N-[2,4-difluoro-3-[[(3,3,3-trifluoro-1-oxopropyl)amino]methyl]phenyl]cyclopropanecarboxamide] | ≥ 80 | – | – | – | ≥ 80 | – | ≥ 80 | – | – |
| O=C(CC(F)(F)F)NCc1cc(NC(=O)C2C(c3cc(F)c(F)c(F)c3)C2(Cl)Cl)ccc1Cl (stereo not drawn) [Compound 118, 2,2-dichloro-N-[4-chloro-3-[[(3,3,3-trifluoro-1-oxopropyl)amino]methyl]phenyl]-3-(3,4,5-trifluorophenyl)cyclopropanecarboxamide] | – | – | – | ≥ 70 | – | – | ≥ 80 | – | – |
| O=C(NCc1cc(NC(=O)C2C(c3cc(Cl)cc(Cl)c3)C2(Cl)Cl)ccc1Cl)C1CC1 (stereo not drawn) [Compound 148] | – | – | ≥ 70 | – | – | – | – | – | – |
| CCC(=O)NCc1cc(NC(=O)C2C(c3cc(Cl)cc(Cl)c3)C2(Cl)Cl)ccc1F (stereo not drawn) [Compound 55, 2,2-dichloro-3-(3,5-dichlorophenyl)-N-[4-fluoro-3-[(propanoylamino)methyl]phenyl]cyclopropane-1-carboxamide] | ≥ 80 | ≥ 80 | – | – | ≥ 80 | ≥ 80 | ≥ 80 | ≥ 80 | – |
| O=C(CC(F)(F)F)NCc1cc(NC(=O)C2C(c3cc(F)cc(Cl)c3)C2(Cl)Cl)ccc1F (stereo not drawn) [Compound 129, 2,2-dichloro-3-(3-chloro-5-fluorophenyl)-N-[4-fluoro-3-[[(3,3,3-trifluoro-1-oxopropyl)amino]methyl]phenyl]cyclopropanecarboxamide] | ≥ 80 | – | ≥ 70 | ≥ 70 | ≥ 80 | – | ≥ 80 | – | – |
| CC(NC(=O)C1CC1)c1cc(NC(=O)C2C(c3cc(Cl)cc(Cl)c3)C2(Cl)Cl)ccc1Cl (stereo not drawn) [Compound 87] | – | – | – | – | – | – | ≥ 80 | – | – |
| CCC(=O)NC(C)c1cc(NC(=O)C2C(c3cc(Cl)cc(Cl)c3)C2(Cl)Cl)ccc1Cl (stereo not drawn) [Compound 86] | – | – | – | – | – | – | ≥ 80 | – | – |
